Test [1] addresses T1, Prothrombin (Homo sapiens, UniProt P00734). Particulars: Blood.
The target of test [2] is T2, Suppressor of tumorigenicity 14 protein (Homo sapiens, UniProt Q9Y5Y6).
T2 sequence (Q9Y5Y6 whole entry): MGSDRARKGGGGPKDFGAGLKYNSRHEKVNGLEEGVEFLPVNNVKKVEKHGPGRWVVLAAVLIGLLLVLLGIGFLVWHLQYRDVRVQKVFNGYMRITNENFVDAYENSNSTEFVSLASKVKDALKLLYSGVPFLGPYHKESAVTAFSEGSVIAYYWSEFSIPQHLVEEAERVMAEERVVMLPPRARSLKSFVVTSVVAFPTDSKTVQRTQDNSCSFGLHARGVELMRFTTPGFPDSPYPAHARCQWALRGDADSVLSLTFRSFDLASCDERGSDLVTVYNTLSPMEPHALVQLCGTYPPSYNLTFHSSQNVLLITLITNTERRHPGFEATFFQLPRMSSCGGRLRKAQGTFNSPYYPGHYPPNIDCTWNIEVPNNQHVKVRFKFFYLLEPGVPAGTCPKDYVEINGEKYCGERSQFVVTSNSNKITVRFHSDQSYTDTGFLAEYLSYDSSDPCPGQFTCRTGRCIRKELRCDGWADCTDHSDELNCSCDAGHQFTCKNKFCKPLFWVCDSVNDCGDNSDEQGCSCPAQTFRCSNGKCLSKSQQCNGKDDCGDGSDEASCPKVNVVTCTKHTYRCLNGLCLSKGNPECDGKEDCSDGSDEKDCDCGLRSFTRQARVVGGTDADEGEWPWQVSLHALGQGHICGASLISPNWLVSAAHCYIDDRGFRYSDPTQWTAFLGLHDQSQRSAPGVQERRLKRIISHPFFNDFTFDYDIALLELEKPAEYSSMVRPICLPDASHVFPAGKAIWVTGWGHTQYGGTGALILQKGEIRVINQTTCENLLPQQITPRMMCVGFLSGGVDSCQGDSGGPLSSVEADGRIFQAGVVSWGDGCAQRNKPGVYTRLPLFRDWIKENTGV

A short description of test [3]: Anticoagulant activity in blood by aPTT assay. Type of test: functional, Homo sapiens.
The target of test [4] is Coagulation factor X (Homo sapiens, UniProt P00742). In words: Inhibition of f10a.
The target of test [5] is Coagulation factor VII/tissue factor (Homo sapiens) (UniProt P08709+P13726). To be noted: Blood.
Description: Anticoagulant activity in blood by PT assay
Test [6] deals with PC-3. In words: Reduction of median primary tumor growth of PC3 cell line xenografted in nude mouse at 5 mg/kg, ip. Also noted: scale not given: the % may be the effect or the level left. Format: functional, Homo sapiens. To be noted: route intraperitoneal.
In test [7] the target is T1, Prothrombin. In words: Inhibition of thrombin.
Test [8] has as its target Urokinase-type plasminogen activator (Homo sapiens, UniProt P00749). In words: Inhibition of uPA.
In test [9] the test system is PC-3. The experiment in a line: Reduction of dissemination into thorax in nude mouse xenografted with PC3 cell line at 5 mg/kg, ip. Type of test: functional. Also noted: scale not given: the % may be the effect or the level left. Particulars: route intraperitoneal.
For test [10], the target named is Plasminogen (Homo sapiens, UniProt P00747). In words: Inhibition of plasmin.
In test [11] the target is T2, Suppressor of tumorigenicity 14 protein. In words: Reduction of matriptase-catalyzed pro-HGF to HGF processing. Format: functional.

Results on three compounds are retold here after ChEMBL document CHEMBL1138903, “Secondary amides of sulfonylated 3-amidinophenylalanine. New potent and selective inhibitors of matriptase” (J Med Chem, 2006).

A value given as a limit tells only on which side of the number the result lay.

Coagulation factor X, sequence (P00742 41-179 limits assumed): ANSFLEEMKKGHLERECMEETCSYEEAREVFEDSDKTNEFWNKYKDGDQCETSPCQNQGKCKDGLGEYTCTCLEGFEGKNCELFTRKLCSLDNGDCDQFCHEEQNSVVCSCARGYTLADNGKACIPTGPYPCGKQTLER
Coagulation factor X, sequence (P00742 235-488 limits assumed): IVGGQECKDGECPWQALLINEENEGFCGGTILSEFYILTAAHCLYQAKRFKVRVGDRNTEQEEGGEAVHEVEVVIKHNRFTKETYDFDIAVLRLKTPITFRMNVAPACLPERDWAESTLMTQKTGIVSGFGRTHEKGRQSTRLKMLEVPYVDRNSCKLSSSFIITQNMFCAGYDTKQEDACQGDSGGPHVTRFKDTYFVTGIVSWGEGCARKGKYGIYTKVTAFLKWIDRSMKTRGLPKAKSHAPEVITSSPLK
Plasminogen, sequence (P00747 97-580 limits assumed): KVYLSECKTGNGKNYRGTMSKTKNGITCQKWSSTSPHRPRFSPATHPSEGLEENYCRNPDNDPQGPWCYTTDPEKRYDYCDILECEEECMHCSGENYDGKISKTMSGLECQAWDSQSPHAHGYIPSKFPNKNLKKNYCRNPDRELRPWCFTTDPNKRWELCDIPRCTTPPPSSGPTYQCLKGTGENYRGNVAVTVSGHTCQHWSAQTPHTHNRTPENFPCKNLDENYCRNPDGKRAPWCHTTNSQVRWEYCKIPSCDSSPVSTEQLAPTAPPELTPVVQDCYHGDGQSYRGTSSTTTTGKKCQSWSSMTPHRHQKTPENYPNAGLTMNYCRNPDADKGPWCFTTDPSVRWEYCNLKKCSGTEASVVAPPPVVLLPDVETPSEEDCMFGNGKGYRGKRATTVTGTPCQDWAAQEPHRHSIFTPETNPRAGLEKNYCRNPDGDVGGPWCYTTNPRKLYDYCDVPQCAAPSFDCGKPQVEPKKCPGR
Plasminogen, sequence (P00747 581-810 limits assumed): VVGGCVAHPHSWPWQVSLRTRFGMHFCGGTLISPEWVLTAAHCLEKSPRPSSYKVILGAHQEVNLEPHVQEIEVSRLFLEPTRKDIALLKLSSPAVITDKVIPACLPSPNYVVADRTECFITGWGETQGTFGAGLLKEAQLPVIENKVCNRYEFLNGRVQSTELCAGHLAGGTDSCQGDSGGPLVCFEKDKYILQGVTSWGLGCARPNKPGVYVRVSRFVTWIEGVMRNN

As for `N=C(N)c1cccc(C[C@H](NS(=O)(=O)c2cccc(NC(=O)CCN)c2)C(=O)N2CCC(CCN)CC2)c1`, the IC200 in test [1] was > 10 µM; in test [3] it was >10 µM; in [5] it was > 10 µM. Further, the Ki in test [2] turned out to be 0.0066 µM; in [4], 21 µM; in test [7] it was 27 µM; in [8], 3.6 µM; in test [10] it was 2.4 µM. The Activity came to 40% in test [6] and 33% in [9].

Take `N=C(N)NCCC1CCN(C(=O)[C@H](Cc2cccc(C(=N)N)c2)NS(=O)(=O)c2ccc3ccccc3c2)CC1`: the IC200 was found to be 0.32 µM in test [1], 2.7 µM in test [3] and 3.8 µM in test [5]. The Ki in [4] amounted to 27 µM; in test [7], 0.11 µM; in test [8] it was 1.3 µM; in test [10], 20 µM. For the same compound, the Activity in test [6] came out at 17%; in [9], 53%.

`N=C(N)c1cccc(C[C@H](NS(=O)(=O)c2ccc(C3CCCCC3)cc2)C(=O)N2CCN(C(=N)N)CC2)c1` came in with an IC50 in test [11] of 3 µM. Also, the Ki stood at 0.026 µM in test [2]; 1.3 µM in test [4]; 1.7 µM in test [7]; 8.2 µM in [8]; 3.1 µM in [10].
